# Test results taken from patent publication US20140120083A1, “TREATMENT OF CANCERS USING PI3 KINASE ISOFORM MODULATORS” (INFINITY PHARMACEUTICALS, INC., priority 2012, published 2014).
# Columns and labels:
# PI3K α = biological target: T1, PI3K α (Homo sapiens, UniProt P42336); experiment: In vitro IC50, PI3K α; assay type: biochemical
# T1 construct: purchased Upstate
# From the text: (§1) An exemplary system is PI 3-Kinase (human) HTRF™ Assay from Upstate.
# PI3K δ = PI3K δ (Homo sapiens, UniProt O00329); experiment: In vitro IC50, PI3K δ; assay type: biochemical; design: purchased Upstate
# From the text: as §1
# B cell = B cell proliferation; assay type: cell-based
# PI3K γ = biological target: T2, PI3K γ (Homo sapiens, UniProt P48736); experiment: In vitro IC50, PI3K γ; assay type: biochemical
# T2 construct: purchased Sigma
# From the text: as §1
# PI3K β = PI3K β (Homo sapiens, UniProt P42338); experiment: In vitro IC50, PI3K β; assay type: biochemical
# From the text: as §1
# T2 sequence (P48736 whole entry): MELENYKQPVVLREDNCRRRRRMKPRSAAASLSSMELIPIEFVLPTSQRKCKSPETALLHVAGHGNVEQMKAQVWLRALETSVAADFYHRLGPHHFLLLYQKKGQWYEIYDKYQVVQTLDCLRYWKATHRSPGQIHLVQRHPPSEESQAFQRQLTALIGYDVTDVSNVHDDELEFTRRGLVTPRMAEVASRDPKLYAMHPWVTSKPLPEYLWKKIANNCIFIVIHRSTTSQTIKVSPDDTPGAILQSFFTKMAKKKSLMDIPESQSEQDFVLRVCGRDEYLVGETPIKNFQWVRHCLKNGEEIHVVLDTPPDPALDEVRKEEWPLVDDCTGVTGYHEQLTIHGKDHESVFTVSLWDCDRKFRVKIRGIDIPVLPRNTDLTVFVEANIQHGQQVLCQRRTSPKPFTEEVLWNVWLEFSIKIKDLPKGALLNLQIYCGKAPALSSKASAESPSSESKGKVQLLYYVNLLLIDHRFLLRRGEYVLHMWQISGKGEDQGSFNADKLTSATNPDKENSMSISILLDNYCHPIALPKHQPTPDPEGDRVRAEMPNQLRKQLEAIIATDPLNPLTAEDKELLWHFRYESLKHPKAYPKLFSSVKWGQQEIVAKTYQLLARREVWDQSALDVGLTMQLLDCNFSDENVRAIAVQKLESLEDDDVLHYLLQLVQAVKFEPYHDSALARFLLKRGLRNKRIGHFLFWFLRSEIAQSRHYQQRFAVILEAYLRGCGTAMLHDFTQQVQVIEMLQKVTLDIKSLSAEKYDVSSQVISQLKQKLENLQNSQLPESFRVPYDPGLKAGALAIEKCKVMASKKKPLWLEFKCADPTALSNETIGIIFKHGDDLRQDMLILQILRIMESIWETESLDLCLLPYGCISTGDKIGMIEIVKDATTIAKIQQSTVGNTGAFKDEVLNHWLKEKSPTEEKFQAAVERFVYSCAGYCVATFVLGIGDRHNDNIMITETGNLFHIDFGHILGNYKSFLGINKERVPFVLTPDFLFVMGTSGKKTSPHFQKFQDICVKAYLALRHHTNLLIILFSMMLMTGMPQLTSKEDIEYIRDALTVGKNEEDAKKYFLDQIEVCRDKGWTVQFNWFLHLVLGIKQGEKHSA
# Chain of PI3K δ (O00329 whole entry): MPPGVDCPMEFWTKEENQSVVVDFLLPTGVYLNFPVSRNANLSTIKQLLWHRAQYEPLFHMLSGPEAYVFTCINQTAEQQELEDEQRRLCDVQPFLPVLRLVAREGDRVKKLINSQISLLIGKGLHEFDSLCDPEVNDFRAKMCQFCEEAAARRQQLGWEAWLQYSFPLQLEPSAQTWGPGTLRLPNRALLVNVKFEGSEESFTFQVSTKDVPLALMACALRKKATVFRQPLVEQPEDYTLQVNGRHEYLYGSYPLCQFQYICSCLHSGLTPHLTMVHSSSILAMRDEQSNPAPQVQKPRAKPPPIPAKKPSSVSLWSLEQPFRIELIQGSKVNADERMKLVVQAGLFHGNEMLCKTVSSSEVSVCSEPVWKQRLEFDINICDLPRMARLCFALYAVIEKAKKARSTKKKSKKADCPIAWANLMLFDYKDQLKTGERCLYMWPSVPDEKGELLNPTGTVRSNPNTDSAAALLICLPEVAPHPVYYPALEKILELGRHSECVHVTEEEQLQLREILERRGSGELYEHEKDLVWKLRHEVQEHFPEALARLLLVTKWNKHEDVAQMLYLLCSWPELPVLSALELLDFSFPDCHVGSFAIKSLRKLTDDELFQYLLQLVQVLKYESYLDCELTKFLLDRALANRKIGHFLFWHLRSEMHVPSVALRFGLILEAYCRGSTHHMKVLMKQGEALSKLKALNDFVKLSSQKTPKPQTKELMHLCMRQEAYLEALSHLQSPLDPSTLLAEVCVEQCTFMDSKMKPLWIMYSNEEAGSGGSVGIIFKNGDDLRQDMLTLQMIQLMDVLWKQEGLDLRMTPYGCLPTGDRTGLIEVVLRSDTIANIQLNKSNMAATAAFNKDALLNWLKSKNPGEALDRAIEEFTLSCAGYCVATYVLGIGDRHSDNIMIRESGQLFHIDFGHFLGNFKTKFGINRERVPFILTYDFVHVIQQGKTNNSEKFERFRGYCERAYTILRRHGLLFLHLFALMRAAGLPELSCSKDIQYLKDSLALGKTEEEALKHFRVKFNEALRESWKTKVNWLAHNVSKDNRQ
# Chain of PI3K δ (P27986 whole entry partner): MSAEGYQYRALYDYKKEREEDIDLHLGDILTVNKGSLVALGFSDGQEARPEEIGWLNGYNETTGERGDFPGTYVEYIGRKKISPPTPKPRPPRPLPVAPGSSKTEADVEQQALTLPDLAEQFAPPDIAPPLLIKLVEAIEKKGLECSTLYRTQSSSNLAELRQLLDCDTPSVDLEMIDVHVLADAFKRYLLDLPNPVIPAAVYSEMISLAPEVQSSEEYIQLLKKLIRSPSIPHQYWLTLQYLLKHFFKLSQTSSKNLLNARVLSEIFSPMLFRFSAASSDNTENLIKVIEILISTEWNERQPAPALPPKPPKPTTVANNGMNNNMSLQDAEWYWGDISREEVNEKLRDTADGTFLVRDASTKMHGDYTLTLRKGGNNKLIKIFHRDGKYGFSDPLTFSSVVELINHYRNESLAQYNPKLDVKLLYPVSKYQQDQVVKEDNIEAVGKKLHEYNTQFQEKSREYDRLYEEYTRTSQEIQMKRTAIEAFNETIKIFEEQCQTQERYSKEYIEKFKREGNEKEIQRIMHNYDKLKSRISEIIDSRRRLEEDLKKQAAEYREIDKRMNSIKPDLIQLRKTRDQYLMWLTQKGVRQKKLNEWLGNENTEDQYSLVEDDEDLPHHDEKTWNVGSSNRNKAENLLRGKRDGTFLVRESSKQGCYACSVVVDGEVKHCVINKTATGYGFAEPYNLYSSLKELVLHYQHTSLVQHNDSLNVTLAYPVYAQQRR
# T1 sequence (P42336 whole entry): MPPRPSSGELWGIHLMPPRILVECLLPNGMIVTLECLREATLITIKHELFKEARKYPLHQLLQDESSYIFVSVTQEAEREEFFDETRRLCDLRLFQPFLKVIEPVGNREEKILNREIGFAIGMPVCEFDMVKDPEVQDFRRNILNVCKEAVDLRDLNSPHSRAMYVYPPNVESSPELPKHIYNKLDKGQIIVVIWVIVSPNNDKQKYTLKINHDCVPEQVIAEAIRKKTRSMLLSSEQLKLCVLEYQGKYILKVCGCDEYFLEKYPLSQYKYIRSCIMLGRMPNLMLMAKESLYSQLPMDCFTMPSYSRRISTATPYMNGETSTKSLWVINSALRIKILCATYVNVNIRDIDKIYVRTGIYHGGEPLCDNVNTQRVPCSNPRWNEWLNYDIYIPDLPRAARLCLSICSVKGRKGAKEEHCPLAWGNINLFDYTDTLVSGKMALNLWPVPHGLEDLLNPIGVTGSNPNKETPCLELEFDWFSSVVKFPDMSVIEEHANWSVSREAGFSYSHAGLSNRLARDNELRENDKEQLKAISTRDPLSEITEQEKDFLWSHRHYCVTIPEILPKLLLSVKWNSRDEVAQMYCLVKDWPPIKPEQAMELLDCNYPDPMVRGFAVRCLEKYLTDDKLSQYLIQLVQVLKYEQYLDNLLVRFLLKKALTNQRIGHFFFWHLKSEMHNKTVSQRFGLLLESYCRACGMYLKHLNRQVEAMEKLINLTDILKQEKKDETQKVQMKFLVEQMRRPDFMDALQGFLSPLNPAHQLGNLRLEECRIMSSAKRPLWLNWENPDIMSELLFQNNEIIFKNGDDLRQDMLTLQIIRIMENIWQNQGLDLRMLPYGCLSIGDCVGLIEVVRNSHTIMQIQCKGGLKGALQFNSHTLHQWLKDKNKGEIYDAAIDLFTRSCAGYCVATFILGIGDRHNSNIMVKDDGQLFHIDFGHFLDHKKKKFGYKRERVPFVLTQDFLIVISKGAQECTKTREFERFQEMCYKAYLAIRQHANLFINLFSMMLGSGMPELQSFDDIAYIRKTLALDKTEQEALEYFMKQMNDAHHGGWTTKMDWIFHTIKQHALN
# T1 sequence (P27986 whole entry partner): as the sequence (P27986 whole entry partner) above
# Chain of PI3K β (P42338 whole entry): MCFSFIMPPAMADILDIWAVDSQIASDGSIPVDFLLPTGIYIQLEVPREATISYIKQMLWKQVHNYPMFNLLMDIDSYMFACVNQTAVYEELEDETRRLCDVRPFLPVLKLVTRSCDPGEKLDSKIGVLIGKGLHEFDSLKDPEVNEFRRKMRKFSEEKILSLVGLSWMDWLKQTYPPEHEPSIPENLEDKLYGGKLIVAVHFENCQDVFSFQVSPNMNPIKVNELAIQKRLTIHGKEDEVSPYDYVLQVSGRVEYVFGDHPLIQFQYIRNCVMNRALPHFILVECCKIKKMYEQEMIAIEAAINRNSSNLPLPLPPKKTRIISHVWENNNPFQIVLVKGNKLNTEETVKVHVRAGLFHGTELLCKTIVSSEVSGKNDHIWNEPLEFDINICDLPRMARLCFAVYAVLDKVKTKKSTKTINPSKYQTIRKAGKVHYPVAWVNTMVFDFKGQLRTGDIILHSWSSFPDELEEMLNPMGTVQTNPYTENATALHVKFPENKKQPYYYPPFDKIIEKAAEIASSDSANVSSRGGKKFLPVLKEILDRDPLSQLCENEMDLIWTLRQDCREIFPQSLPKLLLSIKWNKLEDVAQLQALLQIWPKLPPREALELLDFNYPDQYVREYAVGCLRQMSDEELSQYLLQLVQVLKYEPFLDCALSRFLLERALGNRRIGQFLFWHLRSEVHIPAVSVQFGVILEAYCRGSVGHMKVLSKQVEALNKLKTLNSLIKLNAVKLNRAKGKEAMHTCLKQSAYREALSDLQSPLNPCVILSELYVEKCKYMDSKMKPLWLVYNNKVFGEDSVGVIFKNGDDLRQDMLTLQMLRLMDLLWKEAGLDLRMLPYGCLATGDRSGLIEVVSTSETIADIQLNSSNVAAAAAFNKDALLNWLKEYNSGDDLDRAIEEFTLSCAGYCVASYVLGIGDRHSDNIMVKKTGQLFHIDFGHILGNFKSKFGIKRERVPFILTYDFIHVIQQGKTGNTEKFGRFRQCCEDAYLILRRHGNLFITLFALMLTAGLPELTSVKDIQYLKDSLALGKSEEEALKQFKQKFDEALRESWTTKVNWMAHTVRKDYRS
IC50 (PI3K α),IC50 (PI3K δ),IC50 (PI3K γ),IC50 (PI3K β),SMILES,EC50 (B cell)
> 10 µM,< 100 nM,< 100 nM,,Cc1ccccc1-n1c(Cn2nc(I)c3c(N)ncnc32)cc2cccc(C)c2c1=O [Compound 6],< 100 nM
> 10 µM,< 100 nM,< 1000 nM,< 1000 nM,Cc1cccc2cc([C@H](C)Nc3ncnc4[nH]nc(Cl)c34)n(C3CC3)c(=O)c12 [Compound 293],
